Values quoted from earlier work, collected in patent US20140032198A1, “APPLICATION OF MULTIDIMENSIONAL MATRIX FOR DRUG MOLECULAS DESIGN AND THE METHODOLOGIES FOR DRUG MOLECULAR DESIGN” (priority 2011, published 2014).

Conditions: qualitative comparison within captopril series, historical data

Row | Compound | toxicity and side effects profiles
1 | CCC(=O)O[C@@H](O[P@](=O)(CCCCc1ccccc1)CC(=O)N1C[C@H](C2CCCCC2)C[C@H]1C(=O)O)C(C)C [Fosinopril] | relatively weaker
2 | Benazepril | relatively weaker
3 | Ramipril | best toxicity and side effects profiles
4 | Lisinopril | relatively weaker
5 | CCOC(=O)[C@H](CCc1ccccc1)N[C@@H](C)C(=O)N1Cc2ccccc2C[C@H]1C(=O)O [Quinapril] | relatively weaker
